Data from patent US20040009973A1, “Novel potassium channels modulators” (4SC AG, priority 2002, published 2004).

Target: T1, BK potassium channel, cloned hSlo (α-hSlo and β-bSlo) in CHO cells (Homo sapiens, UniProt Q12791)
T1 construct: expressed in transfected cells; host or cells: CHO cells, permanently transfected
Assay: Em-Assay: membrane potential with voltage sensitive dye DiBAC(4)3, fluorescence plate reader
Format: cell-based
Details: compound 50 μM; NS004 25 or 50 μM; hSlo transfected CHO cells; change in DiBAC(4)3 fluorescence intensity
Text: The large conductance, voltage-dependent and Ca^2+-activated potassium channel BK is a potassium selective ion channel and belongs to the subfamily of KCa channels. Four BK alpha-subunits form a functional channel that can be regulated by intracellular Ca^2+ concentration, membrane voltage, and other mechanisms like phosphorylation states or beta subunits. To test the biological activity of the compounds, we applied two different techniques, a fluorescence based assay using a voltage sensitive dye (Em-Assay) as well as exploiting electrophysiological methods.
CHO cells permanently transfected with cloned hSlo (α-hSlo and β-bSlo), yielding typical BK potassium currents (Zhou et al., Pflügers Arch., 436: 725-734 (1998), were used for the evaluation of compound activity. Activation or inhibition of BK channels in these cells leads to a change of the electrochemical gradient causing a hyperpolarized or depolarised membrane potential, respectively.
To determine changes in the membrane potential of the cells we used the voltage sensitive dye DiBAC(4)3 (Molecular Probes) in a kinetic assay system using a fluorescent plate reader (Manning and Sontheimer, J. Neurosci, Meth., 91: 73-81 (1999). The anionic bis-oxonol DiBAC(4)3 is a voltage sensitive dye which partitions from the extracellular environment into the cell where it reversibly binds to intracellular proteins, a kinetic process depending on the membrane potential of the cell. At depolarised potentials (i.e. at a reduced K^+ efflux due to blocked K^+ channels) the dye accumulates in the cell leading to an increased fluorescence intensity, due to its increased fluorescence if bound to cellular proteins. At hyperpolarized potentials (i.e. at an increased K^+ efflux due to the opening of K^+ channels), the dye partitions out of the cell causing a decreased fluorescence intensity.
hSlo transfected CHO cells where maintained in DMEM supplemented with 10% FCS, 250 μg/ml Geneticin, 100 μg/ml Hygromycin, 1×HT-Supplement, and 1×Non-essential Amino Acids and cultured in a humidified CO2 incubator. After trypsination, cells where plated with a density of 5×10^4 cells per well on a clear 96-well plate and incubated for 24 h. Cells where washed once with PBS, once with PBS containing 20 mM HEPES (adjusted to pH 7.4 with NaOH) and 2 μM DIBAC(4)3 (DPBS-DiBAC solution). 180 μl of the dPBS-DiBAC solution was then added to the cells and the plate incubated for 30-60 min at 37° C. During this time the dye could partition into the cells and reach a certain steady-state distribution, depending on the resting membrane potential. Test and reference compounds were stored as DMSO stock solutions and diluted in dPBS-DiBAC solution to the desired concentration.
Fluorescence intensity (Ex.: 485 nm/Em.: 520 nm) of each well was detected in the plate reader (Fluostar, BMG) every 60 seconds. After recording the baseline fluorescence for 7 minutes, 20 μl test—and reference compounds were added and the fluorescence intensity was detected for additional 15 minutes. Background was subtracted, data values were normalized and expressed as a change in fluorescence intensity against time. The change in fluorescence intensity caused by the test compounds was evaluated, compared to the effect of the reference compound NS004, and the ratio was determined (see Table I).

T1 sequence (Q12791 1-1178 isoform Q12791-5): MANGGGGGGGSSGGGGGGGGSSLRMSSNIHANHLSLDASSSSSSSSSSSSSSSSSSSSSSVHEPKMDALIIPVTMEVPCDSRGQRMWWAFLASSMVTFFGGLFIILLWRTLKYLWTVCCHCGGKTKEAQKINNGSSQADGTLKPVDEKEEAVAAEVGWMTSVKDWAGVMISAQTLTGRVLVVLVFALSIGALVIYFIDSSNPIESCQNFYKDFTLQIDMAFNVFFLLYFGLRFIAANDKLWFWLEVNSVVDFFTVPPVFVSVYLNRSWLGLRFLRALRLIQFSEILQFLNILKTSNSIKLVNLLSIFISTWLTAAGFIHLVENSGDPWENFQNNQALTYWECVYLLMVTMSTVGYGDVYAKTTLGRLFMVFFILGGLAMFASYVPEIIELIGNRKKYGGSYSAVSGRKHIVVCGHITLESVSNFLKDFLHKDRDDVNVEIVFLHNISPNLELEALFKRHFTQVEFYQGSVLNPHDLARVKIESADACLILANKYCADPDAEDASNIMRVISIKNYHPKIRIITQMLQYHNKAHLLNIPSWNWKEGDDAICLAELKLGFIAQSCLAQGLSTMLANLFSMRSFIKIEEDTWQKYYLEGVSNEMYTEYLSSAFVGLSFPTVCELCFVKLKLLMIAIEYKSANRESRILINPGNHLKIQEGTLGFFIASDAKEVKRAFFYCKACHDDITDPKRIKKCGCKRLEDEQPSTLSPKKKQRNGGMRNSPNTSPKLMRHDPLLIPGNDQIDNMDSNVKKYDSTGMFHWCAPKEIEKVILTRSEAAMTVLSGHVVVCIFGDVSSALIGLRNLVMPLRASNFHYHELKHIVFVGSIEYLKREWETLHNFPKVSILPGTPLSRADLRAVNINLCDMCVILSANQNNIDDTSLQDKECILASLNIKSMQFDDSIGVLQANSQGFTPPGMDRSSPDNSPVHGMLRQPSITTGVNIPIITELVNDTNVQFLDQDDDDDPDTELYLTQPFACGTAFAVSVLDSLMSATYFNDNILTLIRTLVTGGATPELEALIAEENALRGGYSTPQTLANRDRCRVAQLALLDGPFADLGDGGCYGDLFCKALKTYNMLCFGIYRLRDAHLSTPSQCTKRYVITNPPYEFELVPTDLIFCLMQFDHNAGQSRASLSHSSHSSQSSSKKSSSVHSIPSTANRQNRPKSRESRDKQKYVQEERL
T1 sequence (Q28067 2-191 partner limits assumed): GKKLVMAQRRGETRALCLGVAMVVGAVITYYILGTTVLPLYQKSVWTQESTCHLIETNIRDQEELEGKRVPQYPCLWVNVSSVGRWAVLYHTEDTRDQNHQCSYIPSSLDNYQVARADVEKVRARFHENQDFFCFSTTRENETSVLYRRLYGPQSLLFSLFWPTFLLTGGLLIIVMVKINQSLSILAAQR

| Em effect: ratio of the compound effect compared to the maximal effect of NS004 | SMILES |
| --- | --- |
| + (0-1 = +) | Fc1cc(F)cc(CNc2cccc(NCc3ccc(-c4csnn4)cc3)c2)c1 [Compound 53, N-(3,5-difluorobenzyl)-N′-(4-[1,2,3]thiadiazol-4-yl-benzyl)-benzene-1,3-diamine] |
| + (0-1 = +) | O=[N+]([O-])c1ccc(CNc2cccc(NCc3ccc(F)cc3F)c2)o1 [Compound 54, N-(2,4-difluorobenzyl)-N′-(5-nitrofuran-2-ylmethyl)-benzene1,3-diamine] |
| + (0-1 = +) | Fc1ccc(CNc2cccc(NCc3cccc(Cl)c3)c2)c(F)c1 [Compound 55, N-(3-chlorobenzyl)-N′-(2,4-difluorobenzyl)-benzene-1,3-diamine] |
| + (0-1 = +) | COc1cccc(CNc2cccc(NCc3csc4ccc(Cl)cc34)c2)c1 [Compound 56, N-(5-chlorobenzo[b]thiophen-3-ylmethyl)-N′-(3-methoxybenzyl)-benzene-1,3diamine] |
| + (0-1 = +) | Fc1cccc(F)c1CNc1cccc(NCc2cccc(Cl)c2)c1 [Compound 57, N-(3-chlorobenzyl)-N′-(2,6-difluorobenzyl)-benzene-1,3-diamine] |
| + (0-1 = +) | COc1cccc(CNc2cccc(NCc3cccc(Cl)c3)c2)c1 [Compound 58, N-(3-chlorobenzyl)-N′-(3-methoxybenzyl)-benzene-1,3-diamine] |
| + (0-1 = +) | COc1cccc(CNc2cccc(NCc3ccc(-c4csnn4)cc3)c2)c1 [Compound 59, N-(3-methoxybenzyl)-N′-(4-[1,2,3]thiadiazol-4-yl-benzyl)-benzene-1,3-diamine] |
| + (0-1 = +) | Fc1cccc(CNc2cccc(NCc3csc4ccc(Cl)cc34)c2)c1 [Compound 60] |
| + (0-1 = +) | FC(F)(F)c1ccccc1CNc1cccc(NCc2ccc(-c3csnn3)cc2)c1 [Compound 61, N-(4-[1,2,3]thiadiazol-4-yl-benzyl)-N′-(2-tri-fluoromethylbenzyl)-benzene-1,3-diamine] |
| + (0-1 = +) | FC(F)(F)c1ccccc1CNc1cccc(NCc2csc3ccc(Cl)cc23)c1 [Compound 62] |
| + (0-1 = +) | CS(=O)(=O)c1ccc(CNc2cccc(NCc3ccccc3C(F)(F)F)c2)cc1 [Compound 63, N-(4-methanesulfonylbenzyl)-N′-(2-tri-fluoromethylbenzyl)-benzene-1,3-diamine] |
| + (0-1 = +) | Fc1ccc(CNc2cccc(NCc3csc4ccc(Cl)cc34)c2)c(Cl)c1 [Compound 64, N-(5-chlorobenzo[b]thiophen-3-ylmethyl)-N′-(2-chloro-4-fluorobenzyl)-benzene-1,3-diamine] |
| + (0-1 = +) | CS(=O)(=O)c1ccc(CNc2cccc(NCc3ccc(F)cc3Cl)c2)cc1 [Compound 65, N-(2-chloro-4-fluorobenzyl)-N′-(4-methanesulfonylbenzyl)-benzene-1,3-diamine] |
| + (0-1 = +) | Fc1ccc(CNc2cccc(NCc3cccc(Cl)c3)c2)c(Cl)c1 [Compound 66] |
| + (0-1 = +) | COc1cccc(CNc2cccc(NCc3ccc(F)cc3Cl)c2)c1 [Compound 67] |
| + (0-1 = +) | N#Cc1cccc(CNc2cccc(NCc3ccc(C(F)(F)F)cc3)c2)c1 [Compound 68] |
| + (0-1 = +) | Fc1ccc(CNc2cc(NCc3ccc(F)cc3F)cc(C(F)(F)F)c2)c(F)c1 [Compound 69] |

| Em effect: ratio of the compound effect compared to the maximal effect of NS004 | SMILES |
| --- | --- |
| + (0-1 = +) | FC(F)(F)c1ccc(CNc2cc(NCc3ccc(C(F)(F)F)cc3)cc(C(F)(F)F)c2)cc1 [Compound 70, 5-trifloromethyl-N,N′-bis-(4-trifluoromethylbenzyl)-benzene-1,3-diamine] |
| + (0-1 = +) | N#Cc1ccccc1-c1ccc(CNc2cc(NCc3ccc(-c4ccccc4C#N)cc3)cc(C(F)(F)F)c2)cc1 [Compound 73] |
| + (0-1 = +) | FC(F)(F)c1cc(NCc2ccccc2Cl)cc(NCc2ccccc2Cl)c1 [Compound 75] |
| + (0-1 = +) | COc1cccc(CNc2cc(NCc3cccc(OC)c3)cc(C(F)(F)F)c2)c1 [Compound 76, N,N′-bis-(3-methoxybenzyl)-5-trifluoromethylbenzene-1,3-diamine] |
| + (0-1 = +) | CC(C)(C)c1ccc(CNc2cc(NCc3ccc(C(C)(C)C)cc3)cc(C(F)(F)F)c2)cc1 [Compound 77, N,N′-bis-(4-tert-butylbenzyl)-5-trifluoromethylbenzene-1,3-diamine] |
| + (0-1 = +) | CC(C)(C)c1ccc(CNc2cc(NCc3csc4ccc(Cl)cc34)cc(C(F)(F)F)c2)cc1 [Compound 78] |
| + (0-1 = +) | CC(C)(C)c1ccc(CNc2cc(NCc3ccc(-c4csnn4)cc3)cc(C(F)(F)F)c2)cc1 [Compound 79, N-(4-tert-butylbenzyl)-N′-(4-[1,2,3]thiadiazol-4-yl-benzyl)-5-tri-fluoromethylbenzene-1,3-diamine] |
| + (0-1 = +) | Fc1cc(F)cc(CNc2cc(NCc3csc4ccc(Cl)cc34)cc(C(F)(F)F)c2)c1 [Compound 80] |
| + (0-1 = +) | COc1cccc(CNc2cc(NCc3csc4ccc(Cl)cc34)cc(C(F)(F)F)c2)c1 [Compound 81] |
| + (0-1 = +) | COc1cccc(CNc2cc(NCc3cccc(Cl)c3)cc(C(F)(F)F)c2)c1 [Compound 82] |
| + (0-1 = +) | COc1cccc(CNc2cc(NCc3ccc(C(F)(F)F)cc3)cc(C(F)(F)F)c2)c1 [Compound 83, N-(3-methoxybenzyl)-5-tri-fluoromethyl-N′-(4-tri-fluoromethylbenzyl)-benzene-1,3-diamine] |
| + (0-1 = +) | CC(C)(C)c1ccc(CNc2cc(NCc3ccc(C(F)(F)F)cc3)cc(C(F)(F)F)c2)cc1 [Compound 84] |
| + (0-1 = +) | O=[N+]([O-])c1ccc(CNc2cc(NCc3ccccc3C(F)(F)F)cc(C(F)(F)F)c2)o1 [Compound 85] |
| + (0-1 = +) | Cc1cc(NCc2ccc(S(C)(=O)=O)cc2)ccc1NCc1ccc(S(C)(=O)=O)cc1 [Compound 86] |
| + (0-1 = +) | Cc1cc(NCc2ccc(-c3csnn3)cc2)ccc1NCc1ccc(-c2csnn2)cc1 [Compound 87] |
| + (0-1 = +) | Clc1cc(NCc2ccc(-c3csnn3)cc2)ccc1NCc1ccc(-c2csnn2)cc1 [Compound 88] |
| + (0-1 = +) | Clc1cc(NCc2ccc(-c3csnn3)cc2)c(Cl)cc1NCc1ccc(-c2csnn2)cc1 [Compound 89] |
